# Laboratory results taken from patent US20230270721A1, “INHIBITION OF BAX-MEDIATED CELL DEATH BY ELTROMBOPAG” (Albert Einstein College of Medicine, priority 2020, published 2023).
# Tests used:
# [1] = cited from earlier work
# BAX = biological target: T1, BAX (Homo sapiens, UniProt Q07812); assay: Competitive fluorescence polarization binding assay (FPA), BAX / FITC-BIM-SAHB; conditions: FITC-BIM-SAHB 25 nM
# T1 construct: Human full-length (1-192) wild-type BAX (Q07812); made in house; host or cells: E. coli BL21 (DE3) CodonPlus (DE3)-RIPL
# T1 sequence (Q07812 whole entry): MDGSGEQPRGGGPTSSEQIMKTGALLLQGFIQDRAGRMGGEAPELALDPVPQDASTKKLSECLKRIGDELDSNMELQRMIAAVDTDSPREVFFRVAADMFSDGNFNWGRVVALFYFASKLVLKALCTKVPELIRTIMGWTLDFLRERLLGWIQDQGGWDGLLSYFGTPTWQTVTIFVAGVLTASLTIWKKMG
# Method: Fluorescence polarization assays (FPA) were performed as previously described (Gavathiotis, E., et al. Nat Chem Biol 8, 639-645 (2012)). Direct binding isotherms of BIM-SAHB were measured by incubated FITC-BIM-SAHB (25 nM) with serial dilutions of full-length BAX alone or in the presence of 0.5 or 1 µM EO. Competition binding assays were performed by titrating ED into BAX (150 nM) and FITC-BIM-SAHB (25 nM). Measurements were taken at 10-minute intervals over 60 minutes on a TECAN F200 PRO microplate reader. Reported curves represent 10-minute time point. KD values and IC50 were determined using GraphPad Prism nonlinear fit four-parameter agonist or antagonist versus response with restraints for 100% and 0% bound calculated by the mP of saturated BAX + FITC-BIM-SAHB and FITC-BIM-SAHB alone.
# To test this hypothesis, a competitive fluorescence polarization assay (FPA) (Gavathiotis, E., et al. Nat Chem Biol 8, 639-645 (2012)) based on the interaction between BAX and fluorescently-labeled stapled BIM-BH3 peptide (FITC-BIM-SAHB) was used (Gavathiotis, E., et al. Nature 455, 1076-1081 (2008)). […] The IC50 and KD are consistent with a competitive binding mechanism of EO displacing FITC-BIM-SAHB from the N-terminal trigger site of BAX.
# BAX K21E = biological target: T2, BAX K21E (Homo sapiens, UniProt Q07812, K21E); assay: Liposomal permeabilization assay, trigger site mutant K21E; format: biochemical; conditions: 250 nM BAX and 5 nM tBID
# T2 construct: Human full-length (1-192) wild-type BAX (Q07812); made in house; host or cells: E. coli BL21 (DE3) CodonPlus (DE3)-RIPL
# T2 sequence (Q07812 whole entry K21E): as the sequence (Q07812 whole entry) above, with K21E counted along it
# Method: Lipids (Avanti Polar Lipids) at the following ratio, phosphatidylcholine 48%, phosphatidylinositol 10%, dioleoyl phosphatidylserine 10%, phosphatidylethanolamine, 28%, and tetraoleoyl cardiolipin 4%, were mixed in a total of 1 mg, dried and resuspended in 10 mM HEPES, pH 7, 200 mM KCI, and 5 mM MgCl2 with 12.5 mM 8-aminonaphthalene-1,3,6-trisulfonic acid (ANTS) dye and 45 mM p-xylene-bis-pyridinium bromide (DPX) quencher (Molecular Probes) using a water bath sonicator. Liposomes were formed by extrusion of the suspension using Avanti Mini-Extruder (Cat # 610000) with polycarbonate membranes of 0.1 µm pore size (Avanti Polar Lipids). […] ANTS/DPX release was quantified based on the increase in fluorescence intensity that occurs when the ANTS fluorophore is separated from the DPX quencher upon release from the liposomes into solution. Fluorescence (λex = 355 nm and λem = 520 nm) was measured at 1 minute intervals at room temperature (22-25° C.) indicated using a Tecan Infinite M1000 plate reader. In the case of heat activation, reactions were set up as described in the absence of tBID or BIM, and experiments were recorded at 42° C. The percentage release of ANTS/DPX at any given time point was calculated as percentage release=((F-F0)/(F100-F0))(100), where F0 and F100 are baseline and maximal fluorescence, respectively. […]
# BAK KO MEFs = assay: Mitochondrial translocation of cytosolic BAX in cells; format: cell-based, mouse; conditions: BIM BH3 or 2 µM staurosporine (STS); 10 or 20 µM EO
# Source text: FIGS. 7A, 7B, 7C, 7D, 7E, and 7F are a set of diagrams showing that eltrombopag inhibits BAX translocation and BAX-mediated apoptosis in cells. […] BAX translocation is based on antibody-based detection of BAX and mitochondrial protein TOMM20. Representative confocal micrographs from three independent biological experiments. Scale bar, 20 µm. […] Data represent ±SEM of three independent biological replicates. Two-sided t test, ****P < 0.0001; ***P < 0.001; **P < 0.01; *P < 0.05; ns, P > 0.05. […] Actin and VDAC are loading controls for cytosolic and mitochondrial fractions, respectively. FIGS. 7D and 7E show a caspase 3/7 assay of BAK-/- mouse embryonic fibroblasts (MEFs) (FIG. 7D) and BAX-/-MEFs (FIG. 7E) in response to 3 µM STS and the presence or absence of various doses of EO for 6 hr. […]
# It is important to note that THPO-receptor agonist activity of EO is highly specific to the human and chimpanzee THPO-receptors, making mouse cell lines ideal for studying EO modulation of BAX-dependent activity independent of THPO-mediated effects (Erickson-Miller, C. L. et al. Stem Cells 27, 424-430 (2009)). First, mitochondrial cytochrome c release, a hallmark of BAX activation and BAX-dependent apoptosis, was evaluated. […] Next, mitochondrial translocation of cytosolic BAX upon treatment with either BIM BH3 or staurosporine (STS) in BAK KO MEFs was evaluated.
compound,measurement,setting,value
"CC1=NN(c2ccc(C)c(C)c2)C(=O)/C1=N\Nc1cccc(-c2cccc(C(=O)O)c2)c1O [EO, eltrombopag]",time of peak concentration,[1]; after oral administration,2 to 6 h
same,oral bioavailability,"[1]; in vivo, po",excellent oral bioavailability
same,half-life,[1]; oral administration,21 to 32 h
same,IC50,"BAX; BAX 150 nM, 10-minute time point, read-out: half-maximal inhibition IC50, competition of FITC-BIM-SAHB",207 nM
same,affinity of BAX for FITC-BIM-SAHB in the presence of EO,"BAX; direct binding titration of BAX, 0.5 or 1 µM EO",decreased affinity
same,inhibition of liposomal release versus BAX WT,BAX K21E,not reduced inhibition
same,mitochondrial translocation of cytosolic BAX,BAK KO MEFs,capable of inhibiting BAX translocation
